What was measured:
CCK-B receptor = biological target: T1, CCK-B receptor (Cavia porcellus, UniProt H0VZC5); assay: CCK-receptor binding, CCK-B (guinea pig cortex assay); settings: read-out: pKi CCK-B (converted)
T1 construct: CCK-B receptor (guinea pig cortex assay); from tissue; host or cells: guinea pig cortex
T1 sequence (H0VZC5 1-426): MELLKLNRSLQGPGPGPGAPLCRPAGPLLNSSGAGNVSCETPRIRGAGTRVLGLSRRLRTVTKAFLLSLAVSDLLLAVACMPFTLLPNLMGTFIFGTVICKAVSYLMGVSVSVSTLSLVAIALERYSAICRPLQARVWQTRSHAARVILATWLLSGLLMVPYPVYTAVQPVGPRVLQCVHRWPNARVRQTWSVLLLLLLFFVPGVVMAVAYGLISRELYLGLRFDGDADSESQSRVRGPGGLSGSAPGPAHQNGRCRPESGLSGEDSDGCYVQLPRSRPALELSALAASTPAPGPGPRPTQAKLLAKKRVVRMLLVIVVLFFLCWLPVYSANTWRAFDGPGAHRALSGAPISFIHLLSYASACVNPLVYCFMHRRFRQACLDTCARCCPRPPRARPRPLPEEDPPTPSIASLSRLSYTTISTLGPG
Description: (§1) The greater affinity of the compounds of the invention for the CCK-B receptor over the CCK-A receptor has also been established using the CCK receptor binding assays described by G Dal Forno et al., J. Pharmcol. Exp & Ther. 261, 1056-1063, 1992.
(§2) The binding affinity of the compounds of the invention for the CCK-A receptor (Pancreas Assay) and CCK-B receptor (guinea pig cortex assay) was determined using the procedure of G Dal Forno et al J. Pharmacol. Exp & Ther. 261--1056-1063. The pKi values determined with respresentative compounds of invention were as follows: […]

CCK-A receptor = assay: CCK-receptor binding, CCK-A (Pancreas Assay)
Description: as §1, §2

Compound	Ki (CCK-B receptor)	pKi CCK-A (CCK-A receptor)
CCOC(=O)CCCOc1ccc(NC(=O)NC2C(=O)N(CC34CC5CC(CC(C5)C3)C4)c3ccccc3N(c3ccccc3)C2=O)cc1 (single isomer, unassigned; (+)) [Example 2, (+)N-[1-(1-Adamantylmethyl)-2,4-dioxo-5-phenyl-2,3,4,5-tetrahydro-1H-1,5-benzodiazepin-3yl]-N'-[4-(3-(ethoxycarbonyl)propyl-1-oxo)phenyl]urea]	5.25 nM	< 5.0
CC(=O)Nc1cccc(NC(=O)NC2C(=O)N(CC34CC5CC(CC(C5)C3)C4)c3ccccc3N(c3ccccc3)C2=O)c1 (racemic) [Example 7, N-[1-(1-Adamantylmethyl)-2,4-dioxo-5-phenyl-2,3,4,5-tetrahydro-1H-1,5-benzodiazepin-3-yl]-N'-(3-acetamidophenyl)urea]	1.32 nM	5.82
O=C(Nc1cccc(C(=O)OCCN2CCOCC2)c1)NC1C(=O)N(CC23CC4CC(CC(C4)C2)C3)c2ccccc2N(c2ccccc2)C1=O (single isomer, unassigned; (+)) [Example 4, (+)N-[1-(1-Adamantylmethyl)-2,4-dioxo-5-phenyl-2,3,4,5-tetrahydro-1H-5-benzodiazepin-3-yl]-N'-[3-[2-(4-Morpholino)ethoxycarbonyl]phenyl]urea]	0.562 nM	6.47
O=CNc1cccc(NC(=O)NC2C(=O)N(CC34CC5CC(CC(C5)C3)C4)c3ccccc3N(c3ccccc3)C2=O)c1 (racemic) [Example 6, N-[1-(1-Adamantylmethyl)-2,4-dioxo-5-phenyl-2,3,4,5-tetrahydro-1H-1,5-benzodiazepin-3-yl]-N'-(3-formylaminophenyl)urea]	0.955 nM	5.95
O=C(Nc1cccc(CN2CCOCC2)c1)NC1C(=O)N(CC23CC4CC(CC(C4)C2)C3)c2ccccc2N(c2ccccc2)C1=O (single isomer, unassigned; (+)) [Example 1, (+)N-[1-(1-Adamantylmethyl)-2,4-dioxo-5-phenyl-2,3,4,5-tetrahydro-1H-1,5-benzodiazepin-3-yl]-N'-(3-(4-morpholinomethyl)phenyl]-urea]	–	4.70
O=C(O)CCCOc1ccc(NC(=O)NC2C(=O)N(CC34CC5CC(CC(C5)C3)C4)c3ccccc3N(c3ccccc3)C2=O)cc1 (single isomer, unassigned; (+)) [Example 3, (+)N-[1-(1-Adamantylmethyl)-2,4-dioxo-5-phenyl-2,3,4,5-tetrahydro-1H-1,5benzodiazepin-3-yl]-N'-[4-(4-oxobutanoic acid)phenyl]urea]	3.8 nM	< 5.0
O=C(Nc1cccc(NCC(O)CO)c1)NC1C(=O)N(CC23CC4CC(CC(C4)C2)C3)c2ccccc2N(c2ccccc2)C1=O (single isomer, unassigned; (+)) [Example 5, (+)N-[1-(1-Adamantylmethyl)-2,4-dioxo-5-phenyl-2,3,4,5-tetrahydro-1H-1,5-benzodiazepin-3-yl]N'-[3-(2,3-dihydroxypropylamino)phenyl]urea]	0.676 nM	5.13
